Experimental data published in patent US20120190004A1, “METHODS AND COMPOSITIONS FOR THE CRYOPRESERVATION OF DUCKWEED” (Biolex Therapeutics, Inc., priority 2009, published 2012).

Tests used:
Assay in all cases: Cryopreservation success rate after dormancy induction in sugar-supplemented medium
[1] = system: Sp. polyrrhiza; assay type: in vivo, Spirodela polyrrhiza; settings: single sugars 90 mg/ml unless the label says 20 mg/ml, six sugar combo 15 mg/ml each
[2] = system: L. minor; assay type: in vivo, Lemna minor
[3] = system: IFN61-B2-101 line; assay type: in vivo, Lemna minor
Protocol: Lemna minor duckweed plants were cultured on Schenk and Hildebrandt media with 20 mg/ml sucrose at an aerial temperature of between 21° C. and 30° C. and light levels ranging from 200 μM·M^−2·sec^−1 to 450 μM·M^−2·sec^−1 for 1 day up to 1 year. Three frond colonies (each frond colony comprised one or more daughter fronds attached to the mother frond) were aseptically transferred into a 2.0-mL cryovial containing a 900 μL solution of Schenk and Hildebrandt media, […] step. The frond colonies were incubated in this sugar solution for 21-30 days. Each 24-hour photoperiod was comprised of fluctuations in temperature and light levels. Specifically, the daytime hours consisted of culturing the duckweed frond colony at an aerial temperature of 10° C. with a light level of about 25 μM·M^−2·sec^−1 to about 50 μM·M^−2·sec^−1 for a duration of 3 hours, followed by an aerial temperature of 15° C. at a light level of about 25 μM·M^−2·sec^−1 to about 75 μM·M^−2·sec^−1 for a duration of 6 hours, and an aerial temperature of 10° C. with a light level of about 25 μM^−2·sec^−1 to about 50 μM·M^−2·sec^−1 for a duration of 3 hours. During the nighttime hours of the 24-hour photoperiod, the duckweed frond colonies were cultured at an aerial temperature of 4° C. in the absence of light for a duration of 12 hours.
(§1) The duckweed frond colonies were dehydrated in a laminar flow hood in 900 μL of a cryoprotective solution, comprising 1.92 M DMSO, […], 3.26 M glycerol, and 0.4 M sucrose at pH 5.8. The cryovials were incubated in this solution at 4° C. for 30 minutes to 2 hours in the absence of light. Following the incubation, the cryoprotective solution was removed and replaced with 900 μL of fresh cryoprotective solution.
(§2) The duckweed frond colonies were frozen in a slow rate freezer according to the following freezing protocol. The cryovials containing the duckweed frond colonies were held at 4° C. and the temperature was lowered to −4° C. at 1° C. per minute, to −40° C. at 25° C. per minute, and then raised to −12° C. at 10° C. per minute. The temperature was again lowered to −40° C. at 1° C. per minute, to −90° C. at 10° C. per minute, and then lowered to −150° C. at 10° C. per minute. Once frozen, the vials containing the frond colonies were transferred to the vapor phase of liquid nitrogen for storage.
(§3) After up to 17 months in storage, the frozen duckweed frond colonies were thawed and recovered as follows. The vials containing the frozen duckweed frond colonies were transferred from the liquid nitrogen storage tank to a laminar flow hood and were thawed at room temperature for approximately ten minutes. The cryoprotective solution was removed and replaced with 900 μL of Schenk and Hildebrandt medium, supplemented with 1.2 M sucrose, followed by a ten minute incubation at room temperature. The 1.2 M sucrose was subsequently diluted by a series of five dilutions whereby 450 μL of the 1.2 M sucrose solution was removed and replaced with 450 μL of Schenk and Hildebrandt medium supplemented with 20 mg/ml sucrose. Following the serial dilutions, the frond colonies were transferred to a petri dish with Schenk and Hildebrandt medium, supplemented with 10 mg/ml sucrose and 1% (weight/volume) agar. The duckweed frond colonies were cultured at an aerial temperature of between 21° C. and 30° C. with light levels ranging from about 20 μM·M^−2·sec^−1 to about 100 μM·M^−2·sec^−1 for 7-14 days prior to calculating the success rate of the cryopreservation procedure.
The cryopreservation success rate was calculated by the total number of visible daughter fronds (or daughter fronds with viable tissue) to survive the freezing process and successfully reproduce new daughter fronds as a percentage of the total number of visible daughter fronds that were frozen. Viability of tissue or of daughter fronds was assessed by the presence of green tissue and the ability of these fronds or frond tissues to reproduce and generate new daughter fronds. […]

[4] = system: BAP01-B2-230 line; assay type: in vivo, Lemna minor
Protocol: Lemna minor duckweed plants were cultured on Schenk and Hildebrandt media with 20 mg/ml sucrose at an aerial temperature of between 21° C. and 30° C. and light levels ranging from […] for 1 day up to 1 year. Three frond colonies (each frond colony comprised one or more daughter fronds attached to the mother frond) were aseptically transferred into a 2.0-mL cryovial containing a 900 μL solution of Schenk and Hildebrandt media, supplemented with 15 mg/ml of each D-trehalose dihydrate, sucrose, D-sorbitol, D-raffinose pentahydrate, D-glucose, and D-mannitol for the dormancy-induction step. The frond colonies were incubated in this sugar solution for 21-30 days. Each 24-hour photoperiod was comprised of fluctuations in temperature and light levels. Specifically, the daytime hours consisted of culturing the duckweed frond colony at an aerial temperature of 10° C. with a light level of about 25 μM·M^−2·sec^−1 to about 50 μM·M^−2·sec^−1 for a duration of 3 hours, followed by an aerial temperature of 15° C. at a light level of about 25 μM·M^−2·sec^−1 to about 75 μM·M^−2·sec^−1 for a duration of 6 hours, and an aerial temperature of 10° C. with a light level of about 25 μM^−2·sec^−1 to about 50 μM·M^−2·sec^−1 for a duration of 3 hours. During the nighttime hours of the 24-hour photoperiod, the duckweed frond colonies were cultured at an aerial temperature of 4° C. in the absence of light for a duration of 12 hours.
as §1, §2, §3
The cryopreservation success rate was calculated by the total number of visible daughter fronds (or daughter fronds with viable tissue) to survive the freezing process and successfully reproduce new daughter fronds as a percentage of the total number of visible daughter fronds that were frozen. […]

[5] = sugars at two concentrations: 90 mg/ml (1X) and 270 mg/ml (3X), listed as Sucrose 1X
[6] = sugars at two concentrations: 90 mg/ml (1X) and 270 mg/ml (3X), listed as Sucrose 3X
[7] = various concentrations of six sugar combination: total sugar 90 (1X), 216 (2.4X), 342 mg/ml (3.8X), or 20 mg/ml sucrose

Structure (SMILES): OC[C@H]1O[C@@](CO)(O[C@H]2O[C@H](CO)[C@@H](O)[C@H](O)[C@H]2O)[C@@H](O)[C@@H]1O [Sucrose, sucrose]
- Cryopreservation success rate ([1]; first set of experiments): 0% (0/10)
- Cryopreservation success rate ([1]; first set of experiments, listed as 20 mg/ml Sucrose): 0% (0/14)
- Cryopreservation success rate ([1]; second set of experiments): 0% (0/12)
- Cryopreservation success rate ([2]; dormancy induction 7-Day, 4° C. with no light): 0% (0/28)
- Cryopreservation success rate ([2]; dormancy induction 7-Day, 9-10° C. with no light): 14.82% (4/27)
- Cryopreservation success rate ([2]; dormancy induction 7-Day, fluctuating temperature and light): 33.3% (9/27)
- Cryopreservation success rate ([2]; dormancy induction 7-Day, fluctuating temperature with no light): 65.39% (17/26)
- Cryopreservation success rate ([2]; dormancy induction 14-Day, 4° C. with no light): 0% (0/22)
- Cryopreservation success rate ([2]; dormancy induction 14-Day, 9-10° C. with no light): 73.08% (19/26)
- Cryopreservation success rate ([2]; dormancy induction 14-Day, fluctuating temperature and light): 96% (24/25)
- Cryopreservation success rate ([2]; dormancy induction 14-Day, fluctuating temperature with no light): 100% (24/24)
- Cryopreservation success rate ([2]; dormancy induction 21-Day, 4° C. with no light): 4.17% (1/24)
- Cryopreservation success rate ([2]; dormancy induction 21-Day, 9-10° C. with no light): 91.67% (22/24)
- Cryopreservation success rate ([2]; dormancy induction 21-Day, fluctuating temperature with no light): 86.96% (20/23)
- Cryopreservation success rate ([2]; dormancy induction 28-Day, 4° C. with no light): 0% (0/20)
- Cryopreservation success rate ([2]; dormancy induction 28-Day, 9-10° C. with no light): 97.37% (37/38)
- Cryopreservation success rate ([2]; dormancy induction 28-Day, fluctuating temperature and light): 94.29% (33/35)
- Cryopreservation success rate ([2]; dormancy induction 28-Day, fluctuating temperature with no light): 100% (30/30)
- Cryopreservation success rate ([2]; first set of experiments, single sugars 90 mg/ml unless the label says 20 mg/ml, six sugar combo 15 mg/ml each, listed as 20 mg/ml Sucrose): 42.3% (11/26)
- Cryopreservation success rate ([2]; second set of experiments, single sugars 90 mg/ml unless the label says 20 mg/ml, six sugar combo 15 mg/ml each, listed as 20 mg/ml Sucrose): 43.8% (7/16)
- Cryopreservation success rate [2, 5]: 88.9% (16/18)
- Cryopreservation success rate [2, 6]: 0% (0/11)
- Cryopreservation success rate [2, 7]: 92.9% (26/28)
- Cryopreservation success rate [3, 5]: 89.5%
- Cryopreservation success rate [3, 6]: 0%
- Cryopreservation success rate [3, 7]: 100%
- Cryopreservation success rate [4, 5]: 100% (16/16)
- Cryopreservation success rate [4, 6]: 0% (0/12)
- Cryopreservation success rate [4, 7]: 60.9% (14/23)
